Key:
Type in all cases: cell-based
P2X2 A304F = target: T1, P2X2 A304F (Homo sapiens, UniProt Q9UBL9, A304F); assay: Site-saturation screen of ligand-binding domain with ATP, A304F; details: 500 μM ATP, ± sd
T1 construct: expressed in transfected cells; host or cells: Saccharomyces cerevisiae BY4741 derivative, genome-integrated, galactose-inducible
Description: (§1) The yeast P2X2 screening platform poses an opportunity to probe the structure-function of the ligand-binding domain in detail. The conserved P2X “NFR” motif at residues 300 to 302 is directly involved in bonding to the ATP triphosphate moiety ([41]), so we mutagenized residues at or near this motif (298–304), ultimately covering 133 variants (7 sites, 19 residues each). […] We compared our results to phylogenetic data based on a multiple sequence alignment (MSA) from a curated set of 419 related P2X homologs (Figs. 3B, and S5; Table S1).
(§2) Figure 3 Structure-function analysis of the ligand binding domain.A, heat map summarizing the screening data of ATP with seven site-saturation libraries surrounding the NFR-motif. B, sequence-logo plot of the mutagenized residues and percent identity scores as determined from MSA. C, homology model of P2X2 colored by sequence conservation as calculated from a multiple sequence alignment of 419 related P2X genes. Conservation is scored on a log scale where maroon is more conserved and blue is less conserved. D, ATP in the ligand-binding pocket of P2X2. […]
(§3) GCaMP assays were performed as follows. […] Cells were loaded onto a black, clear bottom microplate and imaged on a FlexStation3 plate reader. […] Fluorescence was measured with an excitation at 485 nm, and emission 525 nm. […] For strains with mScarlet, fluorescence was read with excitation 570 nm/emission 610 nm. […]

P2X2 F301W+F303Y = target: T2, P2X2 F301W+F303Y (Homo sapiens, UniProt Q9UBL9, F301W/F303Y); assay: Fast GCaMP-mScarletI assay in yeast, P2X2 F301W+F303Y; details: n = 3; for Bottom, best fit value / Hillslope, best fit value / Top, best fit value: four-parameter logistic fit of ΔF/ΔT; for EC50: four-parameter logistic fit, unit inferred, unit M, read-out: EC50, best fit value
T2 construct: expressed in transfected cells; host or cells: S. cerevisiae BY4741 background
T2 sequence (Q9UBL9 1-471 F301W/F303Y): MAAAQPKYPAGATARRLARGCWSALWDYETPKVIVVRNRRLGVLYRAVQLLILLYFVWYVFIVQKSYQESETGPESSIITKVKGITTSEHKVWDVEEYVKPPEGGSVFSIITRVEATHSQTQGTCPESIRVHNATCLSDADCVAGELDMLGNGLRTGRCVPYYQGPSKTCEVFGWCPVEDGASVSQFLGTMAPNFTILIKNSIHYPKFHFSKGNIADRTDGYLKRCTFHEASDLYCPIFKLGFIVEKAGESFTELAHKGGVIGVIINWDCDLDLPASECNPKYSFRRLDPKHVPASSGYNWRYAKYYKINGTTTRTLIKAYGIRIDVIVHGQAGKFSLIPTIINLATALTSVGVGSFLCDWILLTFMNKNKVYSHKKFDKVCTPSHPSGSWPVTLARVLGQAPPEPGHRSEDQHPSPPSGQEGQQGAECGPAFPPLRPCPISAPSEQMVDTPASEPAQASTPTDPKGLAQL
Method: Figure 4 Unnatural-ligand gating in LBD libraries.A, WT P2X2 was tested with 1 mM ATP, 500 μM AMP-PNP, and compared to ATP with the broken receptor (K81C K83C) control with 1 mM ATP in the fast GCaMP-mScarletI assay (n = 3). […] B, heat map summarizing AMP-PNP signaling (ΔF/ΔT, fast GCaMP-mScarletI assay) in the site-saturation libraries (n = 2–3). All values are normalized to WT P2X2 with saturating amounts of AMP-PNP (500 μM) and therefore represent low signal (ΔF/ΔT) compared to the ATP ligand. C, F301W, F303Y, and A304W were combinatorially combined and tested against the WT, K81C K83C broken P2X2, and the single mutant clones with both ATP (1 mM, black) and AMP-PNP (500 μM, pink). […] Values here represent signal onset and are not normalized to a positive control (n = 2–5). D–K, dose response of each P2X variant with both ATP (black) and AMP-PNP (pink) in the fast GCaMP-mScarletI assay (n = 3). Statistics were performed via one-way ANOVA with Dunnett’s multiple comparisons with to the “broken” K81C K83C negative control. ∗ represents a p value ≤0.05, ∗∗ is p ≤ 0.01, and ∗∗∗ is p ≤ 0.001.
The combined mutations were synergistic, with F303Y + A304W having a predicted additive effect of ca. Ten-fold, relative to the 73-fold seen.
GCaMP assays were performed as follows. P2X2 GCaMP strains were designed with a bi-cistronic reporter, in which the GCaMP protein was followed by a 2A peptide and a mScarletI reporter ([53]). The co-translated mScarletI was designed to act as a control for plasmid loss, GCaMP breakage via nonsense mutation, and contamination. […] P2X2-GCaMP strains were cultured and induced as previously described. Samples were induced for 24 h to allow for the accumulation of the mature GCaMP protein. Cells were washed three times in 0.1 M MES/Tris buffer and resuspended with MES/Tris with supplemental calcium. Cells were loaded onto a black, clear bottom microplate and imaged on a FlexStation3 plate reader. Samples were imaged in “flex” mode. Samples were imaged for 48 s at an interval of 1.6 s. Fluorescence was measured with an excitation at 485 nm, and emission 525 nm. At the 21 s mark, 100 μl ligand solution was transferred to the cells. For strains with mScarlet, fluorescence was read with excitation 570 nm/emission 610 nm. Slopes were calculated from the last 6 points of measurement and were normalized to the positive control samples. Any replicate in which the mScarlet value was measured to be over 2 standard deviations less than the mean for that set was discarded from further analysis.
For multiple comparisons in the site-saturation screening data, One-way ANOVA with Dunnett’s multiple comparisons test was performed where every sample was compared to the “broken” negative control. Significance was plotted where ∗ represents a p value ≤0.05, ∗∗ is p ≤0.01, and ∗∗∗ is p ≤0.001. Dose–response curves were fit with nonlinear regression software using a four-parameter logistic curve. All statistics were calculated and plotted in Graphpad Prism software.

P2X2 F303I = target: T3, P2X2 F303I (Homo sapiens, UniProt Q9UBL9, F303I); assay: Site-saturation screen of ligand-binding domain with ATP, F303I; details: 500 μM ATP, ± sd
T3 construct: expressed in transfected cells; host or cells: S. cerevisiae BY4741 background
Description: as §1, §2, §3

T3 sequence (Q9UBL9 whole entry F303I, the tested form may be a part): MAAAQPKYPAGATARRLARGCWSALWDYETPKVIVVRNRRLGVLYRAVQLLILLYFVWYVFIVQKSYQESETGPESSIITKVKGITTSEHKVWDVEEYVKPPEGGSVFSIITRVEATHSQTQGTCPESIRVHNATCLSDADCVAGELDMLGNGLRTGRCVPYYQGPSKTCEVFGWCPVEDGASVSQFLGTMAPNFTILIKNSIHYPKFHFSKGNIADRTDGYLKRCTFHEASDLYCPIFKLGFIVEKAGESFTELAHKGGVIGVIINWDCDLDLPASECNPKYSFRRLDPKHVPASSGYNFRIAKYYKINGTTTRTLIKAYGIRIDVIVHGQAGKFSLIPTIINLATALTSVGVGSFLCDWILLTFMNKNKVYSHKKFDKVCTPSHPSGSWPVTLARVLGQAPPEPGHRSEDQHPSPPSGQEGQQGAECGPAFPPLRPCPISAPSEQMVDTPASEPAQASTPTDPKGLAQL
T1 sequence (Q9UBL9 whole entry A304F, the tested form may be a part): as the sequence (Q9UBL9 whole entry F303I, the tested form may be a part) above, with I303F, A304F counted along it

Row | Structure (SMILES) | signal, % of WT signaling (P2X2 A304F) [%] | Bottom, best fit value (P2X2 F301W+F303Y) | Hillslope, best fit value (P2X2 F301W+F303Y) | Top, best fit value (P2X2 F301W+F303Y) | EC50 (P2X2 F301W+F303Y) [µM] | signal, % of WT signaling (P2X2 F303I) [%]
1 | Nc1ncnc2c1ncn2[C@@H]1O[C@H](COP(=O)(O)OP(=O)(O)OP(=O)(O)O)[C@@H](O)[C@H]1O [ATP] | 57 ± 2.6 | -0.11 | 0.81 | 46.60 | 3.01 | 90 ± 42
2 | Nc1ncnc2c1ncn2[C@@H]1O[C@H](COP(=O)(O)OP(=O)(O)NP(=O)(O)O)[C@@H](O)[C@H]1O [AMP-PNP] | – | 0.3038 | 1.304 | 12.6 | 260 | –
